Tests used:
[1] = tested on: OFM male antennae; assay: Electroantennogram (EAG) analysis; set-up: species or system Grapholita molesta
Method: (§1) Electroantennogram (EAG) equipment (Syntech, Hilversum, The Netherlands) was used to record the antennal responses of the OFM and PFM adults to Z8-12:Ac, E8-12:Ac, Z8-12:OH, Z8-14:Ac, and Z10-14:Ac. These sex pheromone compounds were diluted with liquid paraffin to prepare a stimulus solution of 100 μg/μL, which was subsequently diluted to 10 and 1 μg/μL. Antenna from 3-day-old OFM and 2- to 4-day-old PFM virgin males were excised at its base, with the distal part of the terminal segment being removed. Then, the treated antenna was attached to electrode holders with SpectraR360 conducting gel. A stimulus controller (model CS-55, Syntegon Technology, Waiblingen, Germany) continuously supplied a humidified air stream at a rate of 500 mL/min. Then, 20 μL of each stimulus solution was adsorbed onto a twice-folded filter paper strip (0.5 cm × 4 cm) placed on the wide section of a l mL pipette tip, which served as an odorant cartridge. Vapor stimuli were delivered by an air compressor into the constant air stream described above, flowing in a copper delivery tube (i.d. 8 mm) with the outlet positioned approximately 1 cm from the antenna. The EAG amplitude tests of the OFM and PFM males’ responses to sex pheromones started with solvent control stimuli (20 μL of liquid paraffin), followed by stimulation with 20, 200, and 2000 μg doses (20 μL of 1.0, 10.0, and 100.0 μg/μL of liquid paraffin solutions, respectively) of stimulus in sequence. The solvent control was performed at the end of the run. To control for variations among antennae, each sample was tested on 10 antennae of different males. The EAG signals and data were analyzed using EAG 2000 software (Syntech, Hilversum, The Netherlands). The corrected EAG amplitude value = absolute EAG amplitude value − (EAGck1 + EAGck2)/2, where EAGck1 and EAGck2 represent the absolute EAG amplitude values of the solvent control before and after measuring each stimulus, respectively. The relative EAG response of the OFM and PFM males to the same doses of sex pheromones were subjected to an analysis of independent sample t-test (p = 0.05) using SPSS version 23.0 (IBM).

[2] = tested on: PFM male antennae; assay: Electroantennogram (EAG) analysis; set-up: species or system Grapholita funebrana; conditions: 20, 200 and 2000 μg doses
Method: as §1

[3] = tested on: PFM males; assay: Field trapping with delta traps, pear orchard; format: in vivo, Grapholita funebrana
Method: To determine the inhibitory effects on OFM male adults and the impact on the trapping effects of PFM male adults, varying amounts of Z8-14:Ac (0, 5, 10, 25, 50, 75, 100, 125, 150 μg) or Z10-14:Ac (0, 25, 50, 100, 150, 250, 350, 450, and 550 μg) were added to rubber septa loaded with a constant dosage of the main pheromone (500 μg of Z8-12:Ac and 20 μg of E8-12:Ac) of the PFM. Trapping experiments of Z8-14:Ac were carried out in peach and pear orchards in Yan’an and Xinjiang (China), respectively. Trapping tests of Z10-14:Ac were performed in pear orchards in Xinjiang (China). Each orchard had nine plots, with three plots in one field. Each plot consisted of a linear arrangement of traps loaded with a constant dosage of the main pheromones and different percentages of the secondary pheromone Z8-14:Ac or Z10-14:Ac of the PFM. Plots in the same field were placed 30 m apart, and fields were ≥1 km apart. The traps were hung 1.4 m from the ground on a suspension bracket between two rows of peach or pear trees from 10 June to 25 July 2021 in Xinjiang and from 15 June to 30 July 2021 in Yan’an. The positions of the traps within the plot were randomly arranged. Every 5 days, counts were taken, and the traps were rotated to the adjacent position to avoid any potential position effects. The septa loaded with sex pheromone components were replaced with new ones after every 15 days of suspension. The data were analyzed using a one-way ANOVA, and the differences in the average trapping of OFM and PFM males using sex attractants containing different amounts of Z8-14:Ac or Z10-14:Ac were further analyzed using Tukey’s HSD test, both of which were performed using SPSS 23.0.

Q: For `CCCCC/C=C\CCCCCCCOC(C)=O` [Z8-14:Ac, (Z)-8-tetradecenyl acetate], which “EAG values of OFM males compared with PFM males” value ([1]; 20, 200 and 2000 μg) is on record?
A: The value was “significantly higher than those of the PFM males”.

Q: And the “EAG response of OFM males” value ([1]; 20, 200 and 2000 μg doses)?
A: Its value is “moderate EAG response”.

Q: What about the “EAG response of PFM males” value [2] of the same molecule?
A: The value was “moderate EAG response”.

Q: And the “Total PFM Males/Trap” value ([3]; Z8-12:Ac/E8-12:Ac/Z8-14:Ac 500/20/5 μg (100:4:1))?
A: Its value is 64.07 ± 6.89 a Males/Trap.

Q: What about the “Total PFM Males/Trap” value ([3]; Z8-12:Ac/E8-12:Ac/Z8-14:Ac 500/20/10 μg (100:4:2)) of the same molecule?
A: The value was 45.47 ± 6.64 a Males/Trap.

Q: What about the “Total PFM Males/Trap” value ([3]; Z8-12:Ac/E8-12:Ac/Z8-14:Ac 500/20/25 μg (100:4:5)) of the same molecule?
A: Its value is 43.06 ± 0.34 a Males/Trap.

Q: What about the “Total PFM Males/Trap” value ([3]; Z8-12:Ac/E8-12:Ac/Z8-14:Ac 500/20/50 μg (100:4:10)) of the same molecule?
A: The value was 53.73 ± 7.04 a Males/Trap.

Q: What about the “Total PFM Males/Trap” value ([3]; Z8-12:Ac/E8-12:Ac/Z8-14:Ac 500/20/75 μg (100:4:15)) of the same molecule?
A: The value was 48.57 ± 6.31 a Males/Trap.

Q: And the “Total PFM Males/Trap” value ([3]; Z8-12:Ac/E8-12:Ac/Z8-14:Ac 500/20/100 μg (100:4:20))?
A: The value was 42.36 ± 8.46 a Males/Trap.

Q: And the “Total PFM Males/Trap” value ([3]; Z8-12:Ac/E8-12:Ac/Z8-14:Ac 500/20/125 μg (100:4:25))?
A: The value was 57.52 ± 21.06 a Males/Trap.

Q: And the “Total PFM Males/Trap” value ([3]; Z8-12:Ac/E8-12:Ac/Z8-14:Ac 500/20/150 μg (100:4:30))?
A: Its value is 72.67 ± 12.44 a Males/Trap.

Q: What about the “effect on the number of PFM males” value ([3]; adding 1–30% of Z8-14:Ac to the PFM sex attractants) of the same molecule?
A: The value was “neither significantly increased nor inhibited”.
